In patent publication US11999727B2 (Tango Therapeutics, Inc., priority 2020, dated 2024):

Tests used:
PRMT5 [1] = biological target: T1, PRMT5 (Homo sapiens, UniProt O14744); test: PRMT5 biochemical IC50 assay with MTA as cofactor; details: PRMT5, MTA as cofactor; read-out: MTA IC50
T1 construct: purchased Viva (custom protein)

[2] = tested on: HAP1 MTAP-deleted cell line; test: SDMA in-cell western assay, HAP1 MTAP-deleted; format: cell-based; details: for IC50: Homo sapiens, HAP1, SDMA in-cell western, HAP1 MTAP-deleted, read-out: HAP 1 MTAP deleted IC50; for MTAP intact/deleted ratio: IC50 ratio HAP1 MTAP-intact / HAP1 MTAP-deleted, SDMA in-cell western
How it was run: (§1)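 Isogenic HAP1 pair: the MTAP-intact line expresses endogenous MTAP, and the deleted line is MTAP-null. Symmetric dimethylarginine was detected by in-cell western and IC50 values derived for each line.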

[3] = tested on: HAP1 MTAP-intact cell line; test: SDMA in-cell western assay, HAP1 MTAP-intact; format: cell-based; details: Homo sapiens, HAP1, SDMA in-cell western, HAP1 MTAP-intact; read-out: MTAP HAP1 intact IC50
How it was run: as §1

[4] = tested on: HAP1 MTAP-deleted cell line; test: Viability assay, MTAP-deleted cell line; format: cell-based; details: Homo sapiens, HAP1, viability assay, MTAP-deleted cell line; read-out: HAP1 MTAP deleted viability
Text: Table 1 additionally indicates IC50 values in a viability assay for the MTAP-deleted cell line (column 10), indicating the effect of treatment with compound on cell survival.

PRMT5 [5] = biological target: T1, PRMT5; test: PRMT5 biochemical IC50 assay with no cofactor; details: PRMT5, no cofactor; read-out: No Cofactor/ rel IC50
Text: Table 1 indicates IC50 values (μM) against PRMT5 for exemplary compounds in the presence of SAM as cofactor, with no cofactor, and with MTA as cofactor, respectively (columns 4-6). […] Ki values can be calculated from the IC50 values as described in the Examples section. As detailed in the Examples section, for the assay performed in the presence of SAM, IC50=Ki×1.5 (Ki=IC50/1.5).

PRMT5 [6] = biological target: T1, PRMT5; test: PRMT5 biochemical IC50 assay with SAM as cofactor; details: PRMT5, SAM as cofactor; read-out: SAM IC50

T1 sequence (O14744 whole entry): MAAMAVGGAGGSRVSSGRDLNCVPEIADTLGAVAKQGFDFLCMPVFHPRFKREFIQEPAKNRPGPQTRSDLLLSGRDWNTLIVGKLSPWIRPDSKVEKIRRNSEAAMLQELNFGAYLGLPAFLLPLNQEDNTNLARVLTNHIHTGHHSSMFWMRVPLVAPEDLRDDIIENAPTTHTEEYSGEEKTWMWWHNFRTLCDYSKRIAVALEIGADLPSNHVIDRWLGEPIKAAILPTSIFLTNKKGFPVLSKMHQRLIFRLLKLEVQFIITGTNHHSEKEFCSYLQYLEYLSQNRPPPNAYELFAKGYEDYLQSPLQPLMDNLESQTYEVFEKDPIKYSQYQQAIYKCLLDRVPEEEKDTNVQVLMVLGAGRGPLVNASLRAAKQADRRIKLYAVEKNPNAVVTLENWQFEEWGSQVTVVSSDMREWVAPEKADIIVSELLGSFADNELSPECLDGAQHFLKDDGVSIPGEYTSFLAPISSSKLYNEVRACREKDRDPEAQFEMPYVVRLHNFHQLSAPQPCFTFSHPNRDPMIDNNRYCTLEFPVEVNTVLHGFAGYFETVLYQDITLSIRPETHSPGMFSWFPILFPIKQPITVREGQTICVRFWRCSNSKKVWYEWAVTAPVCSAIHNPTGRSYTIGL
T1 sequence (Q9BQA1 whole entry partner): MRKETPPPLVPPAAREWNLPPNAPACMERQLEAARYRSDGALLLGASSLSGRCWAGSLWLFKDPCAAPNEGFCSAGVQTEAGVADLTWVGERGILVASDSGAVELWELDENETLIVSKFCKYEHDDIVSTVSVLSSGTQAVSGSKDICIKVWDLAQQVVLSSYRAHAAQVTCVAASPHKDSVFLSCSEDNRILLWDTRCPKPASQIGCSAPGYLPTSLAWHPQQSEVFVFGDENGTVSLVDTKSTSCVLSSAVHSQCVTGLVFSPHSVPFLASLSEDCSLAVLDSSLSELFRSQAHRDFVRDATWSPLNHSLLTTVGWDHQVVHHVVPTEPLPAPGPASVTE

| SMILES | IC50 (PRMT5 [1]) | IC50 [2] | IC50 [3] | IC50 (PRMT5 [5]) | IC50 (PRMT5 [6]) | MTAP intact/deleted ratio [2] | IC50 [4] |
| --- | --- | --- | --- | --- | --- | --- | --- |
| COc1ccc([C@@H]2CC[C@@H](C)CN2C(=O)C(=O)Nc2cncc(C(N)=O)c2)cn1 (racemic) [Compound 128, rac-5-{2-[(2R,5S)-2-(6-Methoxypyridin-3-yl)-5-methylpiperidin-1-yl]-2-oxoacetamido}pyridine-3-carboxamide] | < 0.05 µM | 0.1 to 1 µM | > 1 µM | 0.05 to 0.5 µM | 0.05 to 0.5 µM | A (an IC50 ratio greater than or equal to 10 fold) | > 10 µM |
| NC(=O)c1cncc(NC(=O)C(=O)N2CCC3CCCCCC3C2)c1 (racemic) [Compound 133, 5-(2-{Decahydro-1H-cyclohepta[c]pyridin-2-yl}-2-oxoacetamido)pyridine-3-carboxamide] | 0.05 to 0.5 µM | > 1 µM | > 1 µM | > 0.5 µM | 0.05 to 0.5 µM | B (an IC50 ratio greater than or equal to 3 fold but lower than 10 fold) | > 10 µM |
| Cc1cc(NC(=O)C(=O)N2CCCCC2C(C)C)cnc1N (racemic) [Compound 135, N-(6-amino-5-methyl-3-pyridyl)-2-(2-isopropyl-1-piperidyl)-2-oxo-acetamide] | < 0.05 µM | 0.1 to 1 µM | > 1 µM | 0.05 to 0.5 µM | 0.05 to 0.5 µM | A (an IC50 ratio greater than or equal to 10 fold) | > 10 µM |
| CC1(C)CCCC2CN(C(=O)C(=O)Nc3cncc(C(N)=O)c3)CCC21 (racemic) [Compound 141, 5-[2-(5,5-Dimethyl-decahydroisoquinolin-2-yl)-2-oxoacetamido]pyridine-3-carboxamide] | < 0.05 µM | 0.1 to 1 µM | > 1 µM | 0.05 to 0.5 µM | 0.05 to 0.5 µM | A (an IC50 ratio greater than or equal to 10 fold) | > 10 µM |
| CC1CCC(C2CCCC2)CN1C(=O)C(=O)Nc1cncc(C(N)=O)c1 (racemic) [Compound 143, 5-[2-(5-Cyclopentyl-2-methylpiperidin-1-yl)-2-oxoacetamido]pyridine-3-carboxamide] | 0.05 to 0.5 µM | > 1 µM | > 1 µM | > 0.5 µM | > 0.5 µM | C (an IC50 ratio of less than 3 fold) | > 10 µM |
| Cc1cc(NC(=O)C(=O)N2C[C@H](C)CC[C@H]2C2CCC(C(C)(C)C)CC2)cnc1N (mixture of isomers) [Compound 145, rac-N-(6-amino-5-methyl-3-pyridyl)-2-[(2S,5R)-2-(4-tert-butylcyclohexyl)-5-methyl-1-piperidyl]-2-oxo-acetamide] | < 0.05 µM | 0.1 to 1 µM | > 1 µM | 0.05 to 0.5 µM | 0.05 to 0.5 µM | C (an IC50 ratio of less than 3 fold) | > 10 µM |
| Cc1cc(NC(=O)C(=O)N2C[C@H](C)CC[C@H]2c2cccnc2)cnc1N (racemic) [Compound 146, N-(6-amino-5-methyl-3-pyridyl)-2-[(2S,5R)-5-methyl-2-(3-pyridyl)-1-piperidyl]-2-oxo-acetamide] | < 0.05 µM | < 0.1 µM | > 1 µM | 0.05 to 0.5 µM | 0.05 to 0.5 µM |  | 1 to 10 µM |
| Cc1cc(NC(=O)C(=O)N2C[C@H](C)CC[C@H]2C2CCCC(C)(C)C2)cnc1N (mixture of isomers) [Compound 150, N-(6-amino-5-methyl-3-pyridyl)-2-[(2S,5R)-2-(3,3-dimethylcyclohexyl)-5-methyl-1-piperidyl]-2-oxo-acetamide] | 0.05 to 0.5 µM | 0.1 to 1 µM | > 1 µM | 0.05 to 0.5 µM | 0.05 to 0.5 µM | C (an IC50 ratio of less than 3 fold) | 1 to 10 µM |
| CC1Cc2cc([C@@H]3CC[C@@H](C)CN3C(=O)C(=O)Nc3cncc(C(N)=O)c3)ccc2O1 (mixture of isomers) [Compound 151, rac-5-{2-[(2R,5S)-5-Methyl-2-(2-methyl-2,3-dihydro-1-benzofuran-5-yl)piperidin-1-yl]-2-oxoacetamido}pyridine-3-carboxamide] | < 0.05 µM | < 0.1 µM | > 1 µM | 0.05 to 0.5 µM | 0.05 to 0.5 µM | A (an IC50 ratio greater than or equal to 10 fold) | 1 to 10 µM |
| C[C@@H]1CC[C@@H](C2CCC2)N(C(=O)C(=O)Nc2cncc(C(N)=O)c2)C1 (racemic) [Compound 155, 5-[[2-[(2R,5S)-2-cyclobutyl-5-methyl-1-piperidyl]-2-oxo-acetyl]amino]pyridine-3-carboxamide] | < 0.05 µM | 0.1 to 1 µM | > 1 µM | 0.05 to 0.5 µM | 0.05 to 0.5 µM | A (an IC50 ratio greater than or equal to 10 fold) | > 10 µM |
| Cc1cc(C)n(-c2ccc([C@@H]3CC[C@@H](C)CN3C(=O)C(=O)Nc3cncc(C(N)=O)c3)cc2)n1 (racemic) [Compound 157, rac-5-{2-[(2R,5S)-2-[4-(3,5-Dimethyl-1H-pyrazol-1-yl)phenyl]-5-methylpiperidin-1-yl]-2-oxoacetamido}pyridine-3-carboxamide] | 0.05 to 0.5 µM | > 1 µM | > 1 µM | 0.05 to 0.5 µM | 0.05 to 0.5 µM | B (an IC50 ratio greater than or equal to 3 fold but lower than 10 fold) | > 10 µM |
| Cc1cc(NC(=O)C(=O)N2C[C@H](C)CC[C@H]2C)cnc1N (racemic) [Compound 158, N-(6-amino-5-methyl-3-pyridyl)-2-[(2R,5R)-2,5-dimethyl-1-piperidyl]-2-oxo-acetamide] | 0.05 to 0.5 µM | > 1 µM | > 1 µM | 0.05 to 0.5 µM | 0.05 to 0.5 µM | C (an IC50 ratio of less than 3 fold) | > 10 µM |

Further lines, with some results ahead:

| IC50 (PRMT5 [1]) | IC50 [2] | IC50 [3] | IC50 (PRMT5 [5]) | IC50 (PRMT5 [6]) | SMILES | MTAP intact/deleted ratio [2] | IC50 [4] |
| --- | --- | --- | --- | --- | --- | --- | --- |
| 0.05 to 0.5 µM | > 1 µM | > 1 µM | 0.05 to 0.5 µM | 0.05 to 0.5 µM | C[C@@H]1CC[C@@H](c2cccc(C(N)=O)c2)N(C(=O)C(=O)Nc2cncc(C(N)=O)c2)C1 (racemic) [Compound 125, rac-5-{2-[(2R,5S)-2-(3-Carbamoylphenyl)-5-methylpiperidin-1-yl]-2-oxoacetamido}pyridine-3-carboxamide] | B (an IC50 ratio greater than or equal to 3 fold but lower than 10 fold) | > 10 µM |
| < 0.05 µM | < 0.1 µM | > 1 µM | 0.05 to 0.5 µM | > 0.5 µM | Cc1cc([C@@H]2CC[C@@H](C)CN2C(=O)C(=O)Nc2cncc(C(N)=O)c2)ccc1F (racemic) [Compound 131, rac-5-{2-[(2R,5S)-2-(4-Fluoro-3-methylphenyl)-5-methylpiperidin-1-yl]-2-oxoacetamido}pyridine-3-carboxamide] | A (an IC50 ratio greater than or equal to 10 fold) | 1 to 10 µM |
| 0.05 to 0.5 µM | < 0.1 µM | > 1 µM | 0.05 to 0.5 µM | 0.05 to 0.5 µM | Cc1cc(C)n(-c2cccc([C@@H]3CC[C@@H](C)CN3C(=O)C(=O)Nc3cncc(C(N)=O)c3)c2)n1 (racemic) [Compound 153, rac-5-{2-[(2R,5S)-2-[3-(3,5-Dimethyl-1H-pyrazol-1-yl)phenyl]-5-methylpiperidin-1-yl]-2-oxoacetamido}pyridine-3-carboxamide] | A (an IC50 ratio greater than or equal to 10 fold) | 1 to 10 µM |
| < 0.05 µM | > 1 µM | > 1 µM | 0.05 to 0.5 µM | 0.05 to 0.5 µM | C[C@@H]1CC[C@@H](c2ccccc2)N(C(=O)C(=O)Nc2cncc(C(N)=O)c2)[C@@H]1C (racemic) [Compound 154, rac-5-[[2-[(2R,3R,6S)-2,3-dimethyl-6-phenyl-1-piperidyl]-2-oxo-acetyl]amino]pyridine-3-carboxamide] | B (an IC50 ratio greater than or equal to 3 fold but lower than 10 fold) | > 10 µM |
| < 0.05 µM | < 0.1 µM | > 1 µM | 0.05 to 0.5 µM | 0.05 to 0.5 µM | Cc1ccc([C@@H]2CC[C@@H](C)CN2C(=O)C(=O)Nc2cncc(C(N)=O)c2)cc1F (racemic) [Compound 162, rac-5-{2-[(2R,5S)-2-(3-Fluoro-4-methylphenyl)-5-methylpiperidin-1-yl]-2-oxoacetamido}pyridine-3-carboxamide] | A (an IC50 ratio greater than or equal to 10 fold) | 1 to 10 µM |
| < 0.05 µM | 0.1 to 1 µM | > 1 µM | 0.05 to 0.5 µM | 0.05 to 0.5 µM | C[C@@H]1CC[C@H](c2ccccc2)N(C(=O)C(=O)Nc2cncc(C(N)=O)c2)[C@@H]1C (racemic) [Compound 163, rac-5-[[2-[(2R,3R,6R)-2,3-dimethyl-6-phenyl-1-piperidyl]-2-oxo-acetyl]amino]pyridine-3-carboxamide] | A (an IC50 ratio greater than or equal to 10 fold) | > 10 µM |
